Source: US20220233523A1, “ANTIBIOTIC POTENTIATION FOR NONTUBERCULOUS MYCOBACTERIAL DISEASE” (priority 2019, published 2022)
Marks after values point to notes of the source that are not given here.

How the values were obtained:
Format in all cases: cell-based, Mycobacterium avium subsp hominissuis 104 (MAH104)
[1] = system: pre-established MAH104 biofilms; test: Effect of metabolites on pre-established biofilms; settings: for O.D.570 nm of pre-established biofilms (biofilm formation): 7 days at 37° C. with metabolite, 7H9 0.332±0.073
Method: (§1) Assays with biofilms incubated with propionic acid, butyric acid, and glycerol were performed to test whether these metabolites affect the formation of biofilms. All the experiments were made in non-supplemented 7H9. The effect of these metabolites was evaluated during biofilm formation, in pre-established biofilms and in M. avium cells pre-attached to polystyrene. To evaluate the effect of targeted metabolites during biofilm formation, mycobacteria suspensions were prepared and inoculated in 96 wells polystyrene plates, as already described, and biofilms were formed in the presence or not of the short-chain fatty acids at different concentrations (1%, 0.5%, 0.1%, 0.05% and 0.01%). For glycerol, only 0.2% was used. The biofilms were formed in 7H9 media at 37° C. for 7 days. For pre-established biofilms, MAH104 was again inoculated in 96 wells plates and biofilms were formed as described herein. […] It was also evaluated whether these metabolites could promote the growth of MAH104 cells present in biofilms through the measurement of […] every 24 hours. Finally, mycobacteria suspension with low density made in 7H9 broth (containing 1×10^6 bacteria/ml) were seeded in 96 wells polystyrene plates and incubated for 7 days at 37° C. […] The growth of pre-attached bacterial cells was followed every 24 hours through O.D.595 nm. The biofilm formation was evaluated by crystal violet.
Next, the effect of short-chain fatty acids and glycerol in pre-established biofilms was tested. In parallel, the O.D.595 nm of pre-established biofilm cultures were also measured for 7 days in order to check whether the bacterial cells in biofilm multiplied in the presence of the targeted substrates. […] In addition, we observed a significant increase in the biofilm formation (O.D.570 nm values) when mycobacteria biofilm was incubated with glycerol (7H9, O.D.570 nm=0.332±0.073; glycerol, O.D.570 nm=1.562±0.1751; P=0.0029).

sessile MAH104 cells = test: Growth and biofilm formation of pre-attached (sessile) cells in nutrient-limited media; settings: for O.D.570 nm of sessile MAH104 (crystal violet, biofilm formation): 0.05% fatty acids in non-supplemented 7H9, 7 days, blank 0.091±0.007; for growth of sessile forms: 0.2% glycerol or 0.05% fatty acids in non-supplemented 7H9, 7 days at 37° C., O.D.595 nm
Method: as §1
Low mycobacterial cells density (10^6/ml) resuspended in non-supplemented 7H9 media were inoculated in 96-well plates and incubated for 7 days at 37° C. to allow the bacteria to attach into polystyrene. The supernatant was discarded to remove planktonic cells and pre-attached bacterium was incubated for 7 days in nutrient-limited media (non-supplemented 7H9). […] The growth of sessile mycobacteria was followed by O.D.595 nm measurement and biofilm formation was determined through crystal violet (O.D.570 nm), since the multiplication of bacteria cells is linked with the formation of biofilms. No growth was observed when sessile MAH104 cells were cultivated in non-supplemented 7H9 broth. […] It is also important to highlight that the O.D.570 nm value for sessile MAH104 forms incubated with non-supplemented 7H9 (O.D.570 nm=0.11±0.039) had no significant difference in comparison with the blank (O.D.570 nm=0.091±0.007) (P=0.37), showing no biofilm formation. […] FIG. 3A-D.

[2] = system: MAH (strain 104) in established biofilms; test: Treatment of established MAH biofilms with antibiotics and metabolites (CFU); settings: for killing capacity of clarithromycin: established M. avium 104 biofilms, 72 hours, FIG. 4A-D; for CFU/ml at 14 days: established biofilms, clarithromycin 16 μg/ml, amikacin 4 μg/ml, 0.05% propionic or butyric acid, 0.2% glycerol, none 4.2 +/− 0.5 × 10^8
Method: To assess the antibiotic tolerance of MAH biofilms to amikacin (4 μg/ml) and clarithromycin (16 μg/ml), biofilms were formed for 14 days as described herein. […] As a negative control, biofilms were incubated only with non-supplemented 7H9 without any antibiotics. […] Subsequently, 100 μl of 0.02% of Triton X-100 (final concentration 0.01%) was added to the established biofilms to mix, dilute and perform CFU analysis with the entire population of biofilms (attached and unattached).
Mycobacteria biofilms were first established and then treated or not treated with antibiotics. In parallel, biofilms were also co-treated with antibiotics and the targeted metabolites.

[3] = system: planktonic cultures of MAH104; test: Growth of planktonic cultures in non-supplemented 7H9 with metabolites; settings: propionic acid and butyric acid at 0.05%, glycerol 0.2%; 12 days at 37° C.
Method: MAH104 from 7H10 agar was used to make bacterial suspension in deionized water (10^9 CFU/ml) and then the suspension was centrifuged three times to wash the bacteria cells (3500 rpm for 20 minutes at 20° C.). After washing step, the bacterial suspensions were resuspended in 7H9 medium and suspensions were left alone to allow clumped bacteria to settle. The top half of the suspension was transferred to new tube and adjusted to 1×10^8 CFU/ml, using visual turbidity and optical density. […] These cultures were incubated at 37° C. for 12 days and the O.D.595 nm was measured at each 72 hours.
We determined the optimal concentration for the growth of MAH104 in non-supplemented 7H9 media since the amounts of these metabolites available in Biolog plates are unknown. […] The experiments were made in non-supplemented 7H9 medium (without any carbon sources: no OADC, no glycerol, and no tween 20 or 80) (FIG. 2A-C), which is the condition applied in the biofilms assay.

[4] = system: intracellular MAH 104 in THP-1 macrophages; test: Treatment of MAH inside human THP-1 macrophages with antibiotics and metabolites (CFU); settings: for CFU/ml of macrophage lysate, 2 h: 2 h (baseline); for CFU/ml of macrophage lysate, 4 days: clarithromycin 16 μg/ml, amikacin 4 μg/ml, none 8.2 +/− 0.3 × 10^5
Method: Human THP-1 cell line (TIB-202) (American Type Culture Collection, Manassas, Va.) was cultivated in RPMI-1640 medium with 10% of heat-inactivated fetal bovine serum (FBS, GEMINI B10-PRODUCTS, Sacramento, Calif.), at 37° C. with 5% CO2. The THP-1 cells were maintained in 75 cm^2 tissue culture flasks. The differentiation of THP-1 monocytes into macrophages with PMA (phorbol 12-myristate 13-acetate) (SIGMA ALDRICH) and intracellular antibiotic killing assays were performed as previously described (Rojony et al., Clinical proteomics 2019; 16:39). […] As a negative control, differentiated THP-1 cells were incubated without any antibiotics and with no metabolites. THP-1 cells were replenished with new media containing antibiotics, or no antibiotic, every other day. Cells were lysed at 2 h (baseline) and day 4 and subsequently the number of viable bacteria was determined by CFU counting on 7H10 agar plates.

| Structure (SMILES) | O.D.570 nm of pre-established biofilms (biofilm formation) [1] | O.D.570 nm of sessile MAH104 (crystal violet, biofilm formation) (sessile MAH104 cells) | growth of sessile forms (sessile MAH104 cells) | killing capacity of clarithromycin [2] | CFU/ml at 14 days [2] | growth of planktonic MAH104 in non-supplemented 7H9 [3] | CFU/ml of macrophage lysate, 2 h [4] | CFU/ml of macrophage lysate, 4 days [4] | bacterial killing by clarithromycin and amikacin in macrophages after co-treatment ([4]; THP1 macrophages) | O.D.595 nm of pre-established biofilm cultures ([1]; after 24 hours of culture, 7H9 media 0.452±0.049) |
| --- | --- | --- | --- | --- | --- | --- | --- | --- | --- | --- |
| CCC(=O)O [Propionic acid] | 0.3855±0.048 | 0.25±0.01 | supported the growth of sessile forms | increase | 5.5 +/− 0.4 × 10^6*(1) CFU/ml | able to grow | 2.0 +/− 0.4 × 10^5 CFU/ml | 8.0 +/− 0.2 × 10^5 CFU/ml | increased significantly | – |
| CCCC(=O)O [Butyric acid] | 0.490±0.121 | 0.32±0.02 | supported the growth of sessile forms | increase | 3.4 +/− 0.6 × 10^6* (1) CFU/ml | able to grow | 2.0 +/− 0.4 × 10^5 CFU/ml | 8.4 +/− 0.5 × 10^5 CFU/ml | – | – |
| OCC(O)CO [Glycerol] | 1.562±0.1751 | – | supported the growth of sessile forms | increase | 1.1 +/− 0.3 × 10^9* CFU/ml | able to support MAH104 growth | 3.1 +/− 0.4 × 10^5 CFU/ml | 2.0 +/− 0.5 × 10^5* (1) CFU/ml | – | 0.609±0.069 |
